Values joined by “and” are separate entries in the source; they are usually repeats but may differ in a detail not shown here. Equal values may be shown once.
Assays:
Assay type in all cases: cell-based
[1] = target: T1, CCK1R (Homo sapiens, UniProt P32238); assay: IP-One accumulation TR-FRET assay, PAM format, HEK-293 CCK1R cells; set-up: expressed in transfected cells; host or cells: HEK-293; conditions: for Emax: HEK293, relative to CCK control; for Emax / CCK1R PAM (IP-One) Score (activity score = normalized Emax × pEC50) / EC50: HEK-293 CCK1R cells; for Emax / CCK1R PAM (IP-One) Score (activity score = normalized Emax × pEC50): PAM format; for Emax / EC50: average ± SD; for EC50: PAM format with EC20 CCK
T1 sequence (P32238 1-428): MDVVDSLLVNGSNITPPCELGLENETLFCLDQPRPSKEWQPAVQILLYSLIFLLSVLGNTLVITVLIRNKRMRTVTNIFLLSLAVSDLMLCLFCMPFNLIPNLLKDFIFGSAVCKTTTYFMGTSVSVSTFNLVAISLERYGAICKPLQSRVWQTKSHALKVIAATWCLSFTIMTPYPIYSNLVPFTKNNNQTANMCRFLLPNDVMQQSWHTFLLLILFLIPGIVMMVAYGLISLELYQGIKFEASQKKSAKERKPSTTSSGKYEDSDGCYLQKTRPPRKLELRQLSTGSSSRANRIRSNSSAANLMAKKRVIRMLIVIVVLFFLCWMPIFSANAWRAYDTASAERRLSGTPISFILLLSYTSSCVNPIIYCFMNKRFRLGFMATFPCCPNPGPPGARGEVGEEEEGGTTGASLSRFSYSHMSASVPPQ
Procedure: (§1) For structure–activity relationship studies, we performed myo-inositol-1-phosphate (IP-One) accumulation assays with TR-FRET technology applied to the HEK-293 cell line overexpressing CCK1Rs, as we had described in our high throughput screening effort. In brief, thawed cryopreserved cell stocks were re-suspended in IP-One assay media consisting of phenol-red free DMEM (Corning, Corning, NY, USA, #17-205-CV) with 10% FBS, 1% penicillin (10,000 units)/streptomycin (10 mg) (Pen/Strep, Thermo Fisher Scientific, Waltham, MA, USA, Gibco #15140122), and 1% L-glutamine (200 mM) (Gibco #25030081) and diluted to required cell densities. Then, the cell suspension was dispensed into a 1536-well tissue culture microplate (Corning, #3727), and the plate was incubated overnight at 37 °C and 5% CO^2. After 16–20 h, DMSO or compounds were added with an Echo liquid handler (Labcyte, San Jose, CA, USA), resulting in a top final compound concentration of 50 µM diluted 2-fold for 16-point dose–responses. For the positive allosteric modulator (PAM) format, orthosteric stimulator (CCK) dilutions for control wells were prepared in assay media containing 150 mM lithium chloride (LiCl, 50 mM final, Sigma-Aldrich, St Louis, MO, USA, #L7026). After a 30 min incubation of test compounds at 37 °C and 5% CO2, orthosteric stimulator dilutions (for PAM format) or equivalent dilutions of DMSO (for agonist format) were added to designated wells using BioRaptr (Beckman Coulter, Brea, CA, USA). In addition, CCK control ligand dilutions were included on each test plate. After that, the plate was incubated for 1 h at 37 °C and 5% CO^2 and equilibrated to room temperature. Detection reagents from the IP-One Gq detection kit from Cisbio (Cisbio US Inc., Bedford, MA, USA, #62IPAPEJ) were added, and after 1 h at RT, IP-One content was measured with a PHERAstar FSX microplate reader (BMG Labtech, Ortenberg, Germany). Control ligand dose–responses were analyzed using GraphPad Prism 9.3.1 (San Diego, CA, USA) to validate adequate control and test well concentrations for positive allosteric modulation (PAM) and agonist formats. Dose–response curves were performed as 16-point 2-fold dilutions in duplicates in at least three independent experiments. Large data sets were uploaded and analyzed with CBIS (Chemical and Biology Information System software, ChemInnovation Software, Inc., San Diego, CA, USA). Further data analysis for detailed SAR studies was conducted using the D360 software (Certara).
(§2) The potency and efficacy data for these compounds were used to calculate their activity scores using the following formula: Activity Score = normalized Emax × pEC50. Normalized Emax represents the efficacy of the compound as a fractional response relative to that of the CCK control ligand. pEC50 represents the positive logarithmic value of compound EC50 concentrations in (M).

[2] = target: T1, CCK1R; assay: IP-One accumulation TR-FRET assay, agonist format, HEK-293 CCK1R cells; set-up: expressed in transfected cells; host or cells: HEK-293; conditions: for Emax: HEK293, relative to CCK control, average ± SD, read-out: CCK1R Ago (IP-One) Emax
Procedure: as §1, §2

[3] = target: T2, vasopressin-2 receptor (AVP2R) (Homo sapiens, UniProt P30518); assay: AVP2R cAMP HTRF accumulation assay; conditions: CHO-K1 AVP2R cells; for AVP2R PAM (cAMP) Score (activity score = normalized Emax × pEC50): PAM format; for Emax / EC50: PAM format with vasopressin, original hits: agonist and PAM data combined, average ± SD
T2 construct: expressed in transfected cells; host or cells: CHO-K1 (PAM format); HEK-293 (agonist format)
T2 sequence (P30518 whole entry): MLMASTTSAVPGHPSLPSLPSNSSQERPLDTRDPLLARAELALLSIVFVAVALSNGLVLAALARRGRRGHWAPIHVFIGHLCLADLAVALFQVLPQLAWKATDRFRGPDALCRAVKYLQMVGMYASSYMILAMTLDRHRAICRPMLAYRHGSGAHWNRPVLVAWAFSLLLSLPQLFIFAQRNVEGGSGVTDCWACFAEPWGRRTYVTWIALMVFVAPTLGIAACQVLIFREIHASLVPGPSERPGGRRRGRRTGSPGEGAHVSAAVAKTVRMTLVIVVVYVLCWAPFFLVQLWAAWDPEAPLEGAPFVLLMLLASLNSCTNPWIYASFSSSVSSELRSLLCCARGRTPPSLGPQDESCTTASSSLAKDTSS
Procedure: Possible off-target biological effects. […] Here, we tested them at the vasopressin-2 receptor (AVP2R), representing a class A GPCR structurally related to CCK1R, which is coupled to Gs. The activity at AVP2R was tested using AVP2R-overexpressing CHO-K1 (PAM format) or HEK-293 (agonist format) cells, stimulating the cells with vasopressin. Original hits were tested in both agonist and PAM formats. Since all recognized compound responses were present in both formats, we continued to screen analogs in only the PAM format (also able to capture agonist effects) in CHO-K1 AVP2R cells for potential enhanced sensitivity. The dose–response data sets for original hits were combined, as the PAM and agonist effects were indistinguishable. In brief, arginine vasopressin (AVP) orthosteric stimulator dilutions and ligand and compound dose–response titrations in DMSO were transferred onto a 1536-well plate (Corning #3725) using an Echo liquid handler (Labcyte). Thawed cryopreserved cell stocks were diluted in stimulation buffer consisting of HBSS (Hank’s Balanced Salt Solution with Ca^2+ and Mg^2+, Gibco #24020117), 5 mM HEPES (hydroxyethyl piperazineethanesulfonic acid), 0.5 mM IBMX (3-isobutyl-1-methylxanthine, Sigma-Aldrich), and 0.075% BSA (7.5% DTPA-purified bovine serum albumin, PerkinElmer). The resulting cell suspension was added to the microplate and incubated with test compounds at room temperature for 30 min. Then, the detection reagents from the Cisbio cAMP Gs Dynamic HTRF detection kit were added. The plate was kept at room temperature for 30 min and read on a PHERAstar FSX microplate reader. Dose–response curves were performed as 16-point 2-fold dilutions in duplicate in at least two independent experiments.

| Emax [1] [%] | CCK1R PAM (IP-One) Score (activity score = normalized Emax × pEC50) [1] | EC50 [1] [µM] | CCK1R Ago (IP-One) Score (activity score = normalized Emax × pEC50) [2] | Emax [2] [%] | AVP2R PAM (cAMP) Score (activity score = normalized Emax × pEC50) [3] | Emax [3] [%] | EC50 [3] [µM] | CCK1R IP-One activity (in words) ([1]; PAM and agonist formats) | SMILES |
| --- | --- | --- | --- | --- | --- | --- | --- | --- | --- |
| 51 ± 43 | 1.9 and 1.94 | 18.2 ± 8.6 | 0 | 0 | – | – | – | – | CN1CCN(c2ncnc3c2sc2nc(N4CCOCC4)c4c(c23)CCCC4)CC1 [CMP-19] |
| – | – | – | 0 | 0 | 0 | 0 | – | – | COc1ccc(CCNc2ncnc3c2oc2nc(C(C)C)c4c(c23)CCC4)cc1OC [CMP-62] |
| – | – | – | 0 | 0 | 0 | 0 | – | – | CCCc1nc2oc3c(NCc4ccncc4)ncnc3c2c2c1CCCC2 [CMP-60] |
| 41 ± 15 | 1.8 and 1.76 | 30.2 ± 11.2 | – | – | 0.9 and 0.87 | 16 ± 4 | 3.7 ± 0.5 | – | c1ccc(-c2nc3sc4c(NCCN5CCOCC5)ncnc4c3c3c2CCCC3)cc1 [CMP-26] |
| – | – | – | 0 | 0 | – | – | – | showed no agonist or PAM activity | CN(C)CCCNc1ncnc2c1sc1nc(N3CCOCC3)c3c(c12)CCC3 [CMP-43] |
| – | – | – | 0 | 0 | 0 | 0 | – | – | CCCc1nc2oc3c(NCCCO)ncnc3c2c2c1CCCC2 [CMP-58] |
| 50 ± 32 | 2.0 and 1.99 | 23 ± 17.9 | – | – | 1.2 | 26 ± 1 | 22.4 ± 9.2 | – | CN(C)CCCNc1nnnc2c1sc1nc(N3CCOCC3)c3c(c12)CCCC3 [CMP-17] |
| 53 ± 6 | 2.7 and 2.66 | 7.5 ± 2.9 | – | – | 1.6 and 1.61 | 32 ± 11 | 8.1 ± 8.5 | – | CCCCc1nc2sc3c(NCCCO)ncnc3c2c2c1CCC2 [CMP-5] |
| – | – | – | 0 | 0 | 0 | 0 | – | – | CCCc1nc2oc3c(N(C)CCO)ncnc3c2c2c1CCCC2 [CMP-39] |
| 60 ± 23 | 2.8 and 2.77 | 16.6 ± 15.9 | – | – | 1.6 and 1.64 | 34 ± 5.3 | 14.8 ± 10.3 | – | c1nc(N2CCNCC2)c2sc3nc(N4CCOCC4)c4c(c3c2n1)CCCC4 [CMP-3] |
| 46 ± 7 | 2.2 and 2.23 | 14.1 ± 4.3 | – | – | 3.3 and 3.28 | 66 ± 3 | 11.4 ± 3.6 | – | CCCc1nc2oc3c(N4CCNCC4)ncnc3c2c2c1CCCC2 [CMP-12] |
| 51 ± 16 | 2.3 and 2.28 | 22.5 ± 9 | – | – | 2.2 and 2.15 | 46 ± 9 | 21.7 ± 11.3 | – | CCN(CC)CCCNc1ncnc2c1oc1nc(CC(C)C)c3c(c12)CCC3 [CMP-10] |
| – | – | – | 0 | 0 | 0 | 0 | – | – | CCCCNc1ncnc2c1sc1nc(CCC)c3c(c12)CCCC3 [CMP-57] |
| – | – | – | 0 | – | 2.0 and 1.96 | 43 ± 7 | 26.2 ± 2.4 | – | CC(C)c1nc2sc3c(NCCN4CCOCC4)ncnc3c2c2c1CCCC2 [CMP-54] |
| 38 ± 11 | 1.79 | 14.5 ± 5.3 | – | – | – | 74 ± 12 | 8.6 ± 5.4 | – | CC(C)Cc1nc2oc3c(NCCN(C)C)ncnc3c2c2c1CCCC2 [CMP-25] |
| – | – | – | 0 | – | 0 | – | – | – | Cc1nc2sc3c(NCCN4CCOCC4)ncnc3c2c2c1CCCC2 [CMP-61] |
| – | – | – | 0 | 0 | 0 | 0 | – | – | CC(C)c1nc2oc3c(N4CCC(Cc5ccccc5)CC4)ncnc3c2c2c1CCC2 [CMP-63] |
| – | – | – | 0 | 0 | 0 | 0 | – | – | CCCc1nc2sc3c(NCCCO)ncnc3c2c2c1CCC2 [CMP-56] |

— publication PMC9964746, “Mechanism of Action and Structure–Activity Relationships of Tetracyclic Small Molecules Acting as Universal Positive Allosteric Modulators of the Cholecystokinin Receptor” (Membranes, 2023)
